# Assay results taken from US20180200257A1, “METHODS FOR THE TREATMENT OF INFLAMMATORY DISORDERS” (Galapagos NV, priority 2015, published 2018).
# System: subjects with moderately to severely active RA who have an inadequate response to methotrexate (MTX)
# Assay: Study 1 (add-on to MTX) - Alanine Aminotransferase (ALT) levels
# Type: in vivo, human
# Conditions: 12 weeks results
# Experimental: Double-blind, placebo-controlled add on study in subjects with moderately to severely active RA who have an inadequate response to methotrexate (MTX) (oral or parenteral).
# 595 subjects randomized to one of 6 dose regimens of Compound 1 (dosed as [Compound 1:HCl:3H2O]) (3 dose levels administered either once or twice daily) or placebo on top of each subject's stable dose of MTX.
# Compound 1 (dosed as [Compound 1:HCl:3H2O]) is dosed for twelve weeks once daily (q.d.) (50 mg, 100 mg or 200 mg) or twice daily (b.i.d.) (25 mg, 50 mg or 100 mg); or placebo.
# At Week 12, the subjects on placebo who have not achieved 20% improvement in swollen joint count (SJC66) and tender joint count (TJC68) are re-randomized automatically to receive Compound 1 (dosed as a [Compound 1:HCl:3H2O]) either at 100 mg q.d. or 50 mg b.i.d. doses in a blinded fashion; subjects on 50 mg q.d. who have not achieved 20% improvement in SJC66 and TJC68 will be assigned to 100 mg q.d. and subjects on 25 mg b.i.d. that have not achieved a 20% improvement in SJC66 and TJC68 will be assigned to 50 mg b.i.d. Subjects who switch treatment at week 12 are handled as if they discontinued at week 12 for the purpose of statistical analysis, whereas subjects in the other groups will maintain their randomized treatment until Week 24.
# ALT levels determination is available at Quest Diagnostics, Clinical Trials, Quest House, 125-135 Staines Road, Hounslow, Middlesex, TW3 3JB, United Kingdom under Catalogue n#84460.
# ALT catalyzes the exchange of the amino group of alanine with the oxogroup of 2-ketoglutarate to form pyruvate and glutamate. In the presence of lactic dehydrogenase, pyruvate reacts with NADH to form NAD+, measured spectrophotometrically. Guidelines for the ALT value have been issued by the association for Clinical Biochemistry and Laboratory Medicine, 130-132 Tooley Street LONDON SE1 2TU, united Kingdom, wherein the ALT value should be below 34 U/l in Female and below 52 U/L in male.
compound,measurement,setting,value
"O=C(Nc1nc2cccc(-c3ccc(CN4CCS(=O)(=O)CC4)cc3)n2n1)C1CC1 [Compound 1, cyclopropanecarboxylic acid {5-[4-(1,1-dioxo-thiomorpholin-4-ylmethyl)-phenyl]-[1,2,4]triazolo[1,5-a]pyridin-2-yl}-amide]",Study 1 - ALT Mean CFB,"50 mg q.d., week 1",1 IU/L
same,Study 1 - ALT Mean percentage CFB,"50 mg q.d., week 1",5%
same,Study 1 - ALT Mean CFB,"50 mg q.d., week 2",−1 IU/L
same,Study 1 - ALT Mean percentage CFB,"50 mg q.d., week 2",0%
same,Study 1 - ALT Mean CFB,"50 mg q.d., week 4",−1 IU/L
same,Study 1 - ALT Mean percentage CFB,"50 mg q.d., week 4",4%
same,Study 1 - ALT Mean CFB,"50 mg q.d., week 8",0 IU/L
same,Study 1 - ALT Mean percentage CFB,"50 mg q.d., week 8",9%
same,Study 1 - ALT Mean CFB,"50 mg q.d., week 12",0 IU/L
same,Study 1 - ALT Mean percentage CFB,"50 mg q.d., week 12",12%
same,Study 1 - ALT Mean CFB,"100 mg q.d., week 1",3 IU/L
same,Study 1 - ALT Mean percentage CFB,"100 mg q.d., week 1",14%
same,Study 1 - ALT Mean CFB,"100 mg q.d., week 2",1 IU/L
same,Study 1 - ALT Mean percentage CFB,"100 mg q.d., week 2",9%
same,Study 1 - ALT Mean CFB,"100 mg q.d., week 4",1 IU/L
same,Study 1 - ALT Mean percentage CFB,"100 mg q.d., week 4",9%
same,Study 1 - ALT Mean CFB,"100 mg q.d., week 8",2 IU/L
same,Study 1 - ALT Mean percentage CFB,"100 mg q.d., week 8",15%
same,Study 1 - ALT Mean CFB,"100 mg q.d., week 12",2 IU/L
same,Study 1 - ALT Mean percentage CFB,"100 mg q.d., week 12",16%
same,Study 1 - ALT Mean CFB,"200 mg q.d., week 1",2 IU/L
same,Study 1 - ALT Mean percentage CFB,"200 mg q.d., week 1",11%
same,Study 1 - ALT Mean CFB,"200 mg q.d., week 2",1 IU/L
same,Study 1 - ALT Mean percentage CFB,"200 mg q.d., week 2",16%
same,Study 1 - ALT Mean CFB,"200 mg q.d., week 4",1 IU/L
same,Study 1 - ALT Mean percentage CFB,"200 mg q.d., week 4",15%
same,Study 1 - ALT Mean CFB,"200 mg q.d., week 8",4 IU/L
same,Study 1 - ALT Mean percentage CFB,"200 mg q.d., week 8",31%
same,Study 1 - ALT Mean CFB,"200 mg q.d., week 12",3 IU/L
same,Study 1 - ALT Mean percentage CFB,"200 mg q.d., week 12",34%
same,Study 1 - ALT Mean CFB,"2 × 25 mg b.i.d., week 1",−1 IU/L
same,Study 1 - ALT Mean percentage CFB,"2 × 25 mg b.i.d., week 1",4%
same,Study 1 - ALT Mean CFB,"2 × 25 mg b.i.d., week 2",−2 IU/L
same,Study 1 - ALT Mean percentage CFB,"2 × 25 mg b.i.d., week 2",2%
same,Study 1 - ALT Mean CFB,"2 × 25 mg b.i.d., week 4",−1 IU/L
same,Study 1 - ALT Mean percentage CFB,"2 × 25 mg b.i.d., week 4",9%
same,Study 1 - ALT Mean CFB,"2 × 25 mg b.i.d., week 8",0 IU/L
same,Study 1 - ALT Mean percentage CFB,"2 × 25 mg b.i.d., week 8",11%
same,Study 1 - ALT Mean CFB,"2 × 25 mg b.i.d., week 12",1 IU/L
same,Study 1 - ALT Mean percentage CFB,"2 × 25 mg b.i.d., week 12",21%
same,Study 1 - ALT Mean CFB,"2 × 50 mg b.i.d., week 1",1 IU/L
same,Study 1 - ALT Mean percentage CFB,"2 × 50 mg b.i.d., week 1",8%
same,Study 1 - ALT Mean CFB,"2 × 50 mg b.i.d., week 2",1 IU/L
same,Study 1 - ALT Mean percentage CFB,"2 × 50 mg b.i.d., week 2",13%
same,Study 1 - ALT Mean CFB,"2 × 50 mg b.i.d., week 4",3 IU/L
same,Study 1 - ALT Mean percentage CFB,"2 × 50 mg b.i.d., week 4",24%
same,Study 1 - ALT Mean CFB,"2 × 50 mg b.i.d., week 8",2 IU/L
same,Study 1 - ALT Mean percentage CFB,"2 × 50 mg b.i.d., week 8",20%
same,Study 1 - ALT Mean CFB,"2 × 50 mg b.i.d., week 12",2 IU/L
same,Study 1 - ALT Mean percentage CFB,"2 × 50 mg b.i.d., week 12",28%
